In US4624950A, “Method for treating atherosclerosis hyperlipidema, lipid deposition on arterial walls, or raising the ratio of high density lipoprotein cholesterol to total cholesterol in serum” (Nissan Chemical Industries Ltd., priority 1983, dated 1986):

Legend:
Assay type in all cases: in vivo, rat (male S.D.)
[1] = tested on: Triton-induced hyperlipidemic rats; assay: Antihyperlipidemic activity in Triton-induced hyperlipidemic rats, method A (24 hours) (Test 2)
Experimental: (§1) Cholesterol in serum was measured by means of a cholesterol measuring kit (Cholesterol C-Test Wako, manufactured by Wako Junyaku Co., Ltd.), and cholesterol in HDL was measured by means of NC Hi-Set, manufactured by Nippon Chemiphar Co., Ltd. The quantitative analysis of triglyceride was conducted by means of a triglyceride measuring kit (Triglyceride C-II-Test Wako, manufactured by Wako Junyaku Co., Ltd.). Further, the change rate in the following Tables, was calculated by the following equation. Change rate(%)=(A-B/A)×100 where A is the amount of serum lipids (mg/dl) of the control group, and B is the amount of serum lipids (mg/dl) of the group to which the therapeutic agent was administered. The antihyperlipidemic activity in Triton-induced hyperlipidemic rats Male S.D. rats weighing 230-250 g (7 weeks old) were divided into groups of 5 rats each and injected with a physiological saline solution of Triton Wr-1339 in a dose of 250 mg/kg (5 ml/kg) i.v. through the tail vein. […] The test compounds suspended in 0.5% CMC-Na were given to the rats in an amount of 2 ml/kg via stomach tube 1 hour before and 5 hours after (in the case of method A) or 1 hour before and 23 hours after (in the case of method B) the injection of Triton solution. Control rats received the same volume of the vehicle. The animals were fasted during the experimental period. The total cholesterol and triglyceride in the serum were measured.

[2] = tested on: Triton-induced hyperlipidemic rats; assay: Antihyperlipidemic activity in Triton-induced hyperlipidemic rats, method B (43 hours) (Test 2)
Experimental: as §1

normal rats = assay: Activities against serum lipid, degree of hepatomegaly and GOT/GPT in normal rats (Test 5); details: 300 mg/kg/day, seven days
Experimental: It is administered from once to three times per day. The dose may of course be varied depending upon the age, the weight or the condition of illness of the patient. […] In the following tests, the fractionation of lipoproteins was conducted by a dextran sulfate-MgCl2 precipitation method.
Cholesterol in serum was measured by means of a cholesterol measuring kit (Cholesterol C-Test Wako, manufactured by Wako Junyaku Co., Ltd.), and cholesterol in HDL was measured by means of NC Hi-Set, manufactured by Nippon Chemiphar Co., Ltd. The quantitative analysis of triglyceride was conducted by means of a triglyceride measuring kit (Triglyceride C-II-Test Wako, manufactured by Wako Junyaku Co., Ltd.).
Further, the change rate in the following Tables, was calculated by the following equation.
Change rate(%)=(A-B/A)×100
where A is the amount of serum lipids (mg/dl) of the control group, and B is the amount of serum lipids (mg/dl) of the group to which the therapeutic agent was administered.
(§2) The activities against serum lipid, the degree of hepatomegaly and the hepatic drug metabolizing systems of normal rats
(§3) Male S.D. rats (6 weeks old) were divided into groups of 5 rats each. The test compounds suspended in 5% gum arabic were given to the rats once a day for seven days in a daily dose of 300 mg/kg. Then, the rats were fasted for one day, blood samples were taken, and the total cholesterol, triglyceride, HDL-cholesterol in the serum were quantitatively analyzed. Further, the liver weight was measured, and the degree of hepatomegaly was determined by comparing the weight ratio per 100 g of the body weight with that of the control group. Furthermore, GOT and GPT values were measured, and the activities of cytochrome P-450 and glutathione related enzymes were also measured. These values were compared with those of the control groups to investigate any abnormality.

[3] = tested on: glutathione related enzymes; assay: Effect on glutathione related enzymes of normal rats (Test 5); details: 300 mg/kg/day, seven days
Experimental: as §2, §3

## CN1C(=S)SC(c2ccccc2)N(C)C1c1ccccc1 (centres unmarked) [Compound of the formula I, 3,5-dimethyl-4,6-diphenyl-tetrahydro-2H-1,3,5-thiadiazine-2-thione]
[1]; 150 mg/kg p.o.
  Change rate after 24 hours, Chol: -6.0%
  Change rate after 24 hours, TG: +21.8%
[1]; method A
  Lipid reducing activity (in words): no lipid reducing activity was observed
[2]; 150 mg/kg p.o.
  Change rate after 43 hours, Chol: -43.5%
  Change rate after 43 hours, TG: -65.7%
[2]; method B
  Lipid reducing activity (in words): distinc lipid reducing activity
Normal rats
  Hepatic insufficiency from GOT and GPT values (in words): No hepatic insufficiency was observed
  Hepatomegaly (in words): no substantial hepatomegaly
  LDL-cholesterol reduction (in words): ramarkably reduces LDL-cholesterol
  Serum lipid, HDL-Chol: 29.2 mg/dL
  Serum lipid, TG: 37.5 mg/dL
  Serum lipid, Total-Chol: 39.2 mg/dL
Normal rats; vs control
  Change rate, HDL-Chol: -1.0%
  Change rate, TG: -21.0%
  Change rate, Total-Chol: -16.2%
  Degree of hepatomegaly: +7.0%
[3]
  Abnormalities in activity against glutathione related enzymes (in words): no abnormalities were observed
